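Where inhibition never reached the appropriate level, the endpoint shown equals the highest concentration tested. Otherwise, values were interpolated linearly from a five-concentration, 48-hour dose response in 96-well plates. Abbreviation: GI50, concentration required for 50% inhibition of growth. At the TGI there is no net growth.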
Assays:
Experiment in all cases: growth of human tumour cells (NCI), 48 h
[1] = test system: SF-268 CNS
[2] = test system: SN12C renal
[3] = test system: K-562 leukemia
[4] = test system: SK-MEL-5 melanoma
[5] = test system: OVCAR-8 ovarian
[6] = test system: SW-620 colon
[7] = test system: PC-3 prostate
[8] = test system: ACHN renal
[9] = test system: EKVX NSCLC
[10] = test system: HOP-62 NSCLC

Compound	GI50 [1]	TGI [1]	GI50 [2]	TGI [2]	GI50 [3]	TGI [3]	GI50 [4]	TGI [4]	GI50 [5]	TGI [5]	GI50 [6]	TGI [6]	GI50 [7]	TGI [7]	GI50 [8]	TGI [8]	GI50 [9]	TGI [9]	TGI [10]
COc1ccc(-c2ccc(-c3ccc(C(=N)N)nc3)s2)cc1	1.76 µM	3.28 µM	1.83 µM	3.68 µM	1.09 µM	3.53 µM	1.79 µM	3.26 µM	2.12 µM	4.87 µM	0.43 µM	1.7 µM	1.68 µM	3.31 µM	1.84 µM	3.24 µM	1.7 µM	3.14 µM	–
O=C(NO)c1ccc([N+](=O)[O-])cc1	–	> 100 µM	–	> 100 µM	–	> 100 µM	–	> 100 µM	–	> 100 µM	–	> 100 µM	–	–	–	–	–	> 100 µM	> 100 µM
N#CC(C#N)=CN1CCN(C(=O)c2ccco2)C1=S	31.4 µM	89.4 µM	3.12 µM	16.5 µM	6.57 µM	> 100 µM	2.87 µM	8.07 µM	14.6 µM	> 100 µM	5.62 µM	> 100 µM	17.3 µM	> 100 µM	9.4 µM	50.5 µM	11.9 µM	71.5 µM	–
O=C(O)C(=C\c1ccc2c(c1)OCO2)/C(=C/c1ccc2c(c1)OCO2)C(=O)O	–	–	–	> 100 µM	–	> 100 µM	–	> 100 µM	–	> 100 µM	–	> 100 µM	–	> 100 µM	–	–	–	–	> 100 µM
Cc1c(C#N)c2nnn(C)c(=O)n2c1-c1ccccc1	–	> 100 µM	–	> 100 µM	–	–	–	–	–	> 100 µM	–	> 100 µM	–	> 100 µM	–	> 100 µM	–	> 100 µM	> 100 µM

— PubChem BioAssay (NCI)
